# Assay results as given in patent publication US20220267801A1, “ELIMINATION OF PROLIFERATING CELLS FROM STEM CELL-DERIVED GRAFTS” (Research Development Foundation, priority 2016, published 2022).
# “Also recorded” adds a separate entry of the source.
# Tests used:
# [1] = tested on: TK-PSC (HS415 pluripotent stem cells expressing HSV-TK under Ki67 promoter); experiment: Calcein cell viability assay, ganciclovir on TK-PSC; format: cell-based, human
# Description: (§1) The impact of ganciclovir on TK cells was determined in vitro (FIG. 2B, 2C, 2D). TK PSCs were highly sensitive to ganciclovir exposure (96 h) and even at ganciclovir concentrations of 2.5 μM loss of cells was observed, which was almost complete at 10 μM (FIG. 2B, 2C). In contrast, regular PSCs (i.e., not transduced with the TK construct) were resistant to ganciclovir even at concentrations of 40 μM (FIG. 2B, 2F). As expected from the lack of TK expression in TK neurons, TK neurons were not affected by ganciclovir concentrations up to 40 μM, similar to the control neurons.
# (§2) The time course of the ganciclovir effect was also investigated (FIG. 2D). TK PSCs were killed by Ganciclovir (40 μM) within 4 days. TK-NPCs after 1 week of neurosphere differentiation were still sensitive to Ganciclovir (40 μM), however the time course of killing was markedly slowed down and complete killing was observed only after 8 days.
# (§3) Cell proliferation measurement by calcein assay: Cells were plated onto a 96 wells pre-coated with polyornothine+ECM (1/50). Respectively 1000 cells for pluripotent stem cells, 5000 cells for early NPC and 30000 cells for late NPC. Ganciclovir (Cemevene diluted in PBS, Roche) treatment was added the day after cell plating for PSC, 3 days later for early NPC and one week later for late NPC. Calcein (2 μM) was added for different time course of ganciclovir treatment (24 H to 96 H). Cell survival was measured by calcein integration after 24 h of incubation in a 37° C. incubator.
# [2] = tested on: regular PSCs (not transduced with the TK construct); experiment: Calcein cell viability assay, ganciclovir on control PSC; format: cell-based, human; conditions: concentrations up to 40 μM
# Description: as §1, §3
# [3] = tested on: TK neurons; experiment: Calcein cell viability assay, ganciclovir on TK-neurons; format: cell-based, human; conditions: concentrations up to 40 μM
# Description: as §1
# (§4) Generation of NPC in two dimensional culture (2D): For differentiation in 2D, 3-week old neurospheres were dissociated with ACCUMAX® (Millipore) and replated on polyornithine- (15 μg/mL; Sigma) and laminin- (2 μg/cm^2; R&D System) coated cover slips (diameter=0.8cm) in 24-well plates at 200,000 cells/cm^2 in maturation medium for 1 week before analysis by immunofluorescence staining (FIG. 1B).
# (§5) Cell proliferation measurement by calcein assay: Cells were plated onto a 96 wells pre-coated with polyornothine+ECM (1/50). Respectively 1000 cells for pluripotent stem cells, 5000 cells for early NPC and 30000 cells for late NPC. […] Cell survival was measured by calcein integration after 24 h of incubation in a 37° C. incubator.
# [4] = tested on: control neurons; experiment: Calcein cell viability assay, ganciclovir on control neurons; format: cell-based, human; conditions: concentrations up to 40 μM
# Description: as §1, §4, §5
# [5] = tested on: TK-NPCs (neurosphere-derived neural precursor cells); experiment: Calcein cell viability assay, ganciclovir time course on TK-NPC; format: cell-based, human; conditions: 40 μM ganciclovir
# Description: as §2
# Generation of neurospheres containing DA neuropecursors: NPC were generated as neurospheres to contain DA progenitors as described previously (Tieng et al., 2014). Briefly, neural midbrain orientation is performed during the first week followed by 2 additional weeks of maturation to obtain 1 week or 2 or 3 week-old NPC (FIGS. 1B, 3A).
# as §3
# [6] = tested on: teratoma from transplanted TK-PSC; experiment: TK-PSC transplantation into striatum of NOD/SCID mice, ganciclovir treatment, teratoma formation; format: in vivo
# Description: (§6) FIGS. 3A-3C: Schedule of cell transplantation and ganciclovir treatment. Different transplantation and ganciclovir treatment protocols were used. (A) Schematic representation of the differentiation protocol towards DA neurons. Pluripotent stem cells were cultured as neurospheres for 1 week for midbrain orientation phase, followed by a 2 or 3 week-maturation phase. (B) Transplantation of undifferentiated pluripotent stem cells with early or late ganciclovir treatment. Early treatment: undifferentiated pluripotent stem cells were transplanted and ganciclovir (or PBS control) was applied by daily intra-peritoneal injection from day 4 to day 19 post-transplantation. Late treatment: undifferentiated pluripotent stem cells were transplanted and ganciclovir (or PBS control) was applied by daily intra-peritoneal injection from day 30 to day 45 post-transplantation. (C) Transplantation of 2 or 3 week NPC: NPC containing- neurospheres were dissociated and transplanted into mice striatum. Ganciclovir (or PBS control) treatment was given from day 4 to day 19 post-transplantation. For all protocols, animals were sacrificed 1 month after termination of ganciclovir treatment.
# Early, but not late ganciclovir treatment prevents tumor formation upon transplantation of highly proliferative pluripotent stem cells: Given the encouraging results in vitro, it was investigated whether ganciclovir could prevent tumor formation in vivo. For this purpose TK-PSC were transplanted into the striatum of NOD/SCID mice. […] There was a moderate amount of mouse microglia invasion.
# It was next investigated whether ganciclovir could also be used to treat already established teratomas. […] Mice were sacrificed 30 days after the end of the ganciclovir treatment.
# (§7) Stereotaxic engraftment and ganciclovir treatment: Undifferentiated pluripotent stem cells (20000 cells/ μL) and dissociated neurospheres (100.000 cells/μL) were injected in the striatum of anesthetized mice using a 27-G Hamilton syringe. Injection coordinates for lateral striatum were: bregma=0.74 mm, mediolateral=2.25 mm, dorsoventral=3.5 mm; for medial striatum: bregma=0.74 mm, mediolateral=1.4 mm, dorsoventral=2.8 mm. Mice were euthanized one month later after ganciclovir termination.
# Morphological and Phenotypic Analysis of Injected Surviving Cells: Anesthetized mice were fixed by intracardiac perfusion of 4% paraformaldehyde in phosphate-buffered saline. Immunohistochemical detection was performed on 10-μm thick free-floating cryostat sections using Alexa 488®-, or 555-labeled secondary antibodies or the biotin—avidin—peroxidase complex method (Vector). The following primary antibodies were used: Nestin (rabbit polyclonal anti-human, from Chemicon, 1/400), β3-tubulin (mouse monoclonal from Sigma or rabbit polyclonal from Covance, 1/2000), Neuronal Nuclei-specific protein (NeuN, mouse monoclonal from Chemicon, 1/1000), Glial Fibrillary Acidic Protein (GFAP, rabbit polyclonal from Dako, 1/2000), Proliferating Cell Nuclear Antigen (PCNA, mouse monoclonal from Dako, 1/100), Tyrosin Hydroxylase (TH, rabbit polyclonal from millipore, 1/500), iba 1 (polyclonal rabbit from Wako, 1/500), HSV-TK (mouse monoclonal, Gentaur, 1/100), ki67 (monoclonal rabbit, Abcam, 1/100 or mouse, Chemicon, 1/100).
# [7] = tested on: transplanted TK-NPC graft; experiment: Transplantation of 2-3 week NPC neurospheres into mouse striatum, ganciclovir treatment; format: in vivo, mice
# Description: as §6
# Transplantation of TK-NPCs produced mature neurons which were not sensitive to ganciclovir treatment: The in vivo results, shown so far, were obtained with transplantation of undifferentiated pluripotent stem cells. However, the final goal of neuronal cell therapy is the transplantation of neural precursor cells, which should differentiate into mature neurons and be resistant to ganciclovir treatment. Therefore, 2-3 weeks-NPC containing neurospheres were transplanted (FIGS. 3C, 8). Under these conditions, no tumor formation was observed, even in the absence of ganciclovir treatment (FIG. 8A). In line with these observations, the transplanted cells (assessed by immunofluorescence 7 weeks after transplantation) were abundantly positive for beta 3 tubulin (FIG. 8B, upper panel), while a smaller fraction of cells was TH-positive (FIG. 8B, lower panel). Occasionally nestin-positive cells were observed.
# Markers of cellular proliferation were analyzed by staining of the transplants with antibodies against PCNA and Ki67 (FIG. 8C). […] To verify whether the PCNA-positive, Ki67-negative cells were proliferating cells, BrdU experiments were performed.
# as §7, with “Mice were euthanized one month later after ganciclovir termination.” left out
# [8] = early treatment, one month after termination of treatment
smiles,measurement,setting,value
Nc1nc(O)c2ncn(COC(CO)CO)c2n1 [ganciclovir],time to killing of TK PSCs,[1]; 40 μM ganciclovir,≤ 4 days
same,ganciclovir concentration at which loss of cells was almost complete,"[1]; TK PSCs, 96 h exposure",10 µM
same,ganciclovir concentration at which loss of cells was observed,"[1]; TK PSCs, 96 h exposure",2.5 µM
same,sensitivity of regular (control) PSCs to ganciclovir,[2],resistant; also recorded: no ganciclovir toxicity is observed
same,effect of ganciclovir on TK neurons,[3],not affected; also recorded: lose their sensitivity
same,effect of ganciclovir on control neurons,[4],not affected
same,time to complete killing of TK-NPCs,[5]; TK-NPCs after 1 week of neurosphere differentiation,8 days
same,killing of TK-NPCs,[5]; TK-NPCs after 2 weeks of neurosphere differentiation,not killed
same,tumor development (graft surface),[6]; early ganciclovir treatment,completely prevented
same,Ki67 and TK expression in the graft region,[6]; [8],virtually no Ki67 and TK expression
same,human cells (HCM) remaining in the graft,[6]; [8],hardly any human cells left; also recorded: barely detectable
same,teratoma formation,"[6]; early treatment: 15 days, starting 4 days post-transplantation, daily i.p.",no observed teratomas; also recorded: absence of teratoma formation
same,tumor size (graft surface),[6]; late ganciclovir treatment,did not have any effect
same,teratoma formation,"[6]; late treatment: days 30-45 post-transplantation, sacrifice 30 days after end of treatment",teratoma formation; also recorded: no difference
same,size of transplants (graft surface),"[7]; NPC from 2-3 weeks old neurospheres, early ganciclovir treatment",not affected
same,"proliferation marker pattern of transplants (PCNA positive, Ki67 low to absent)",[7]; ganciclovir vs control,did not alter this pattern
same,"neural markers of transplanted cells (beta 3 tubulin, TH, nestin)",[7]; immunofluorescence 7 weeks after transplantation,None of these markers were affected
same,"graft development, ganciclovir vs PBS",[7]; sacrifice 4 weeks after termination of treatment,No difference
